Measured values as given in ChEMBL document CHEMBL5137080, “Discovery of Novel 7-Hydroxy-5-oxo-4,5-dihydrothieno[3,2-b]pyridine-6-carboxamide Derivatives with Potent and Selective Antifungal Activity against Cryptococcus Species” (J Med Chem, 2022).
Converted amounts (≈) assume the structure as drawn.

Key:
[1] = test system: Cryptococcus deuterogattii; experiment: Antifungal activity against Cryptococcus gattii WM178 infected in Wax moth larvae assessed as survival rate at 10 mg/kg measured after 9 days by Kaplan-Meier method; assay type: functional, Cryptococcus gattii species complex; conditions: WM178, 216 h, time 9 day
Cryptococcus neoformans [2] = experiment: Antifungal activity against Cryptococcus neoformans clinical isolate HN1 assessed as fungal growth inhibition incubated for 72 hrs by broth microdilution method; assay type: functional
Cryptococcus neoformans [3] = experiment: Antifungal activity against Cryptococcus neoformans clinical isolate 56992 assessed as fungal growth inhibition incubated for 72 hrs by broth microdilution method; assay type: functional
Pichia kudriavzevii [4] = experiment: Antifungal activity against Candida krusei ATCC2340 assessed as fungal growth inhibition incubated for 48 hrs by broth microdilution method; assay type: functional
[5] = Cytotoxicity against human HUVEC cells assessed as inhibition on cell growth incubated for 24 hrs by CCK-8 assay; assay type: toxicity, cell-based
Candida albicans = experiment: Antifungal activity against Candida albicans SC5314 assessed as fungal growth inhibition incubated for 48 hrs by broth microdilution method; assay type: functional
[6] = test system: Cryptococcus gattii species complex; experiment: Antifungal activity against Cryptococcus gattii clinical isolate SCZ20031 assessed as fungal growth inhibition incubated for 72 hrs by broth microdilution method; assay type: functional
Aspergillus fumigatus = experiment: Antifungal activity against Aspergillus fumigatus 7544 assessed as fungal growth inhibition incubated for 48 hrs by broth microdilution method; assay type: functional
Cryptococcus neoformans [7] = experiment: Antifungal activity against Cryptococcus neoformans H99 infected in Wax moth larvae assessed as reduction on fungal burden at 10 mg/kg measured after 9 days by 10 fold serial dilution method; assay type: functional; conditions: time 9 day
Candida tropicalis = experiment: Antifungal activity against Candida tropicalis ATCC20026 assessed as fungal growth inhibition incubated for 48 hrs by broth microdilution method; assay type: functional
Cryptococcus neoformans [8] = experiment: Antifungal activity against Cryptococcus neoformans clinical isolate HN19 assessed as fungal growth inhibition incubated for 72 hrs by broth microdilution method; assay type: functional
[9] = test system: Cryptococcus deuterogattii; experiment: Antifungal activity against Cryptococcus gattii WM178 infected in Wax moth larvae assessed as median survival time at 10 mg/kg measured after 9 days by Kaplan-Meier method; assay type: functional, Cryptococcus gattii species complex; conditions: time 9 day
Cryptococcus neoformans [10] = experiment: Antifungal activity against Cryptococcus neoformans clinical isolate 444 assessed as fungal growth inhibition incubated for 72 hrs by broth microdilution method; assay type: functional
[11] = Cytotoxicity against human HUVEC cells assessed as cell viability at 256 ug/ml incubated for 24 hrs by CCK-8 assay; assay type: toxicity, cell-based; conditions: at 256 µg/mL, read-out: Activity
Cryptococcus neoformans [12] = experiment: Antifungal activity against Cryptococcus neoformans clinical isolate HN17 assessed as fungal growth inhibition incubated for 72 hrs by broth microdilution method; assay type: functional
[13] = test system: Cryptococcus gattii species complex; experiment: Antifungal activity against Cryptococcus gattii E566 assessed as fungal growth inhibition incubated for 72 hrs by broth microdilution method; assay type: functional
Cryptococcus neoformans [14] = experiment: Antifungal activity against Cryptococcus neoformans clinical isolate 445 assessed as fungal growth inhibition incubated for 72 hrs by broth microdilution method; assay type: functional
Cryptococcus neoformans [15] = experiment: Antifungal activity against Cryptococcus neoformans clinical isolate HN15 assessed as fungal growth inhibition incubated for 72 hrs by broth microdilution method; assay type: functional
[16] = Hemolytic activity in rabbit RBC at 256 ug/ml incubated for 1 hr by spectrophotometry; assay type: toxicity, cell-based, Oryctolagus cuniculus, Erythrocyte; conditions: red blood cells, at 256 µg/mL, read-out: Activity
Nakaseomyces glabratus [17] = experiment: Synergistic antifungal activity against Candida glabrata ATCC1182 assessed as fractional inhibitory concentration index incubated for 48 hrs in presence of P163-0892 by broth microdilution method; assay type: functional
Pichia kudriavzevii [18] = experiment: Synergistic antifungal activity against Candida krusei ATCC2340 assessed as fractional inhibitory concentration index incubated for 48 hrs in presence of P163-0892 by broth microdilution method; assay type: functional
[19] = Cytotoxicity against human Caco-2 cells assessed as cell viability at 256 ug/ml incubated for 24 hrs by CCK-8 assay; assay type: toxicity, cell-based; conditions: at 256 µg/mL, read-out: Activity
Cryptococcus neoformans [20] = experiment: Antifungal activity against Cryptococcus neoformans clinical isolate HN2 assessed as fungal growth inhibition incubated for 72 hrs by broth microdilution method; assay type: functional
[21] = Hemolytic activity in rabbit RBC at 16 ug/ml incubated for 1 hr by spectrophotometry; assay type: toxicity, cell-based, Oryctolagus cuniculus, Erythrocyte; conditions: red blood cells, at 16 µg/mL, read-out: Activity
Cryptococcus neoformans [22] = experiment: Antifungal activity against Cryptococcus neoformans H99 infected in Wax moth larvae assessed as survival rate at 10 mg/kg measured after 9 days by Kaplan-Meier method; assay type: functional; conditions: H99, 216 h, time 9 day
Cryptococcus neoformans [23] = experiment: Antifungal activity against Cryptococcus neoformans clinical isolate 443 assessed as fungal growth inhibition incubated for 72 hrs by broth microdilution method; assay type: functional
Cryptococcus neoformans [24] = experiment: Antifungal activity against Cryptococcus neoformans H99 assessed as fungal growth inhibition incubated for 72 hrs by broth microdilution method; assay type: functional
[Candida] auris = Antifungal activity against Candida auris CBS 12372 assessed as fungal growth inhibition incubated for 48 hrs by broth microdilution method; assay type: functional; conditions: Candidozyma auris
Cryptococcus neoformans [25] = experiment: Antifungal activity against Cryptococcus neoformans clinical isolate HN20 assessed as fungal growth inhibition incubated for 72 hrs by broth microdilution method; assay type: functional
[26] = test system: Cryptococcus deuterogattii; experiment: Antifungal activity against Cryptococcus gattii WM178 assessed as fungal growth inhibition incubated for 72 hrs by broth microdilution method; assay type: functional, Cryptococcus gattii species complex
Cryptococcus neoformans [27] = experiment: Antifungal activity against Cryptococcus neoformans clinical isolate SH68 assessed as fungal growth inhibition incubated for 72 hrs by broth microdilution method; assay type: functional
Cryptococcus neoformans [28] = experiment: Antifungal activity against Cryptococcus neoformans H99 infected in Wax moth larvae assessed as median survival time at 10 mg/kg measured after 9 days by Kaplan-Meier method; assay type: functional; conditions: time 9 day
Cryptococcus neoformans [29] = experiment: Antifungal activity against Cryptococcus neoformans clinical isolate HN2-40 assessed as fungal growth inhibition incubated for 72 hrs by broth microdilution method; assay type: functional
Cryptococcus neoformans [30] = experiment: Antifungal activity against Cryptococcus neoformans clinical isolate BJ3 assessed as fungal growth inhibition incubated for 72 hrs by broth microdilution method; assay type: functional
Nakaseomyces glabratus [31] = experiment: Antifungal activity against Candida glabrata ATCC1182 assessed as fungal growth inhibition incubated for 48 hrs by broth microdilution method; assay type: functional
[32] = test system: Cryptococcus gattii species complex; experiment: Antifungal activity against Cryptococcus gattii clinical isolate SCZ20024 assessed as fungal growth inhibition incubated for 72 hrs by broth microdilution method; assay type: functional
Cryptococcus gattii = experiment: Antifungal activity against Cryptococcus gattii WM179 assessed as fungal growth inhibition incubated for 72 hrs by broth microdilution method; assay type: functional, Cryptococcus gattii species complex
Cryptococcus neoformans [33] = experiment: Synergistic antifungal activity against Cryptococcus neoformans clinical isolate SH68 assessed as fractional inhibitory concentration index incubated for 72 hrs in presence of Fluconazole by broth microdilution method; assay type: functional
Cryptococcus neoformans [34] = experiment: Synergistic antifungal activity against Cryptococcus neoformans clinical isolate 56992 assessed as fractional inhibitory concentration index incubated for 72 hrs in presence of Fluconazole by broth microdilution method; assay type: functional
[35] = Tmax in Sprague-Dawley rat at 5 mg/kg,po by LC-MS/MS analysis; assay type: ADME, organism-based; conditions: in vivo
Cryptococcus neoformans [36] = experiment: Antifungal activity against Cryptococcus neoformans clinical isolate 445 assessed as fungal growth inhibition incubated for 72 hrs in presence of Fluconazole by broth microdilution method; assay type: functional
Cryptococcus neoformans [37] = experiment: Antifungal activity against Cryptococcus neoformans clinical isolate SH68 assessed as fungal growth inhibition incubated for 72 hrs in presence of Fluconazole by broth microdilution method; assay type: functional
[38] = test system: Cryptococcus gattii species complex; experiment: Antifungal activity against Cryptococcus gattii E566 assessed as fungal growth inhibition incubated for 72 hrs in presence of Fluconazole by broth microdilution method; assay type: functional
Cryptococcus neoformans [39] = experiment: Antifungal activity against Cryptococcus neoformans clinical isolate HN1 assessed as fungal growth inhibition incubated for 72 hrs in presence of Fluconazole by broth microdilution method; assay type: functional

OC(Cn1cncn1)(Cn1cncn1)c1ccc(F)cc1F [FLUCONAZOLE]
survival at 10 mg/kg [1]: 40%
MIC (Cryptococcus neoformans [2]): 2 µg/mL (≈ 6.53 µM)
MIC (Cryptococcus neoformans [3]): 2 µg/mL (≈ 6.53 µM)
MIC (Pichia kudriavzevii [4]): 8 µg/mL (≈ 26.1 µM)
IC50 at 24 h [5]: > 64 µg/mL
MIC (Candida albicans): 0.5 µg/mL (≈ 1.63 µM)
MIC [6]: 8 µg/mL (≈ 26.1 µM)
MIC (Aspergillus fumigatus): > 64 µg/mL
Activity (Cryptococcus neoformans [7]): 5.3 log10CFU/g
MIC (Candida tropicalis): 2 µg/mL (≈ 6.53 µM)
MIC (Cryptococcus neoformans [8]): 4 µg/mL (≈ 13.1 µM)
MST [9]: 3 days
MIC (Cryptococcus neoformans [10]): 4 µg/mL (≈ 13.1 µM)
viability at 24 h, 256 ug/ml [11]: 108%
MIC (Cryptococcus neoformans [12]): 4 µg/mL (≈ 13.1 µM)
MIC [13]: 4 µg/mL (≈ 13.1 µM)
MIC (Cryptococcus neoformans [14]): 8 µg/mL (≈ 26.1 µM)
MIC (Cryptococcus neoformans [15]): 4 µg/mL (≈ 13.1 µM)
hemolysis at 1 h, 256 ug/ml [16]: 2.67%
fractional inhibitory concentration index (FICI) (Nakaseomyces glabratus [17]): 0.625
fractional inhibitory concentration index (FICI) (Pichia kudriavzevii [18]): 0.563
viability at 24 h, 256 ug/ml [19]: 95.3%
MIC (Cryptococcus neoformans [20]): 2 µg/mL (≈ 6.53 µM)
hemolysis at 1 h, 16 ug/ml [21]: 2.65%
survival at 10 mg/kg (Cryptococcus neoformans [22]): 35%
MIC (Cryptococcus neoformans [23]): 8 µg/mL (≈ 26.1 µM)
MIC (Cryptococcus neoformans [24]): 16 µg/mL (≈ 52.2 µM)
MIC ([Candida] auris): 1 µg/mL (≈ 3.27 µM)
MIC (Cryptococcus neoformans [25]): 0.5 µg/mL (≈ 1.63 µM)
MIC [26]: 4 µg/mL (≈ 13.1 µM)
MIC (Cryptococcus neoformans [27]): 8 µg/mL (≈ 26.1 µM)
MST (Cryptococcus neoformans [28]): 2.5 days
MIC (Cryptococcus neoformans [29]): 1 µg/mL (≈ 3.27 µM)
MIC (Cryptococcus neoformans [30]): 2 µg/mL (≈ 6.53 µM)
MIC (Nakaseomyces glabratus [31]): > 64 µg/mL
MIC [32]: 4 µg/mL (≈ 13.1 µM)
MIC (Cryptococcus gattii): 4 µg/mL (≈ 13.1 µM)

CCCCNC(=O)c1c(O)c2sccc2n(Cc2ccccc2)c1=O
survival at 10 mg/kg [1]: 35%
MIC (Cryptococcus neoformans [2]): 0.5 µg/mL (≈ 1.4 µM)
MIC (Cryptococcus neoformans [3]): 1 µg/mL (≈ 2.81 µM)
MIC (Pichia kudriavzevii [4]): > 64 µg/mL
IC50 at 24 h [5]: > 64 µg/mL
MIC (Candida albicans): > 64 µg/mL
MIC [6]: 1 µg/mL (≈ 2.81 µM)
fractional inhibitory concentration index (FICI) (Cryptococcus neoformans [33]): 0.25
MIC (Aspergillus fumigatus): > 64 µg/mL
Activity (Cryptococcus neoformans [7]): 5.7 log10CFU/g
MIC (Candida tropicalis): > 64 µg/mL
MIC (Cryptococcus neoformans [8]): 1 µg/mL (≈ 2.81 µM)
MST [9]: 3 days
MIC (Cryptococcus neoformans [10]): 0.5 µg/mL (≈ 1.4 µM)
viability at 24 h, 256 ug/ml [11]: 107%
MIC (Cryptococcus neoformans [12]): 1 µg/mL (≈ 2.81 µM)
MIC [13]: 0.5 µg/mL (≈ 1.4 µM)
fractional inhibitory concentration index (FICI) (Cryptococcus neoformans [34]): 0.25
MIC (Cryptococcus neoformans [14]): 2 µg/mL (≈ 5.61 µM)
MIC (Cryptococcus neoformans [15]): 1 µg/mL (≈ 2.81 µM)
Tmax [35]: 3.17 min
MIC (Cryptococcus neoformans [36]): 0.125 µg/mL
MIC (Cryptococcus neoformans [37]): 0.0625 µg/mL
hemolysis at 1 h, 256 ug/ml [16]: 2.47%
viability at 24 h, 256 ug/ml [19]: 104%
MIC (Cryptococcus neoformans [20]): 0.5 µg/mL (≈ 1.4 µM)
hemolysis at 1 h, 16 ug/ml [21]: 2.32%
survival at 10 mg/kg (Cryptococcus neoformans [22]): 30%
MIC (Cryptococcus neoformans [23]): 1 µg/mL (≈ 2.81 µM)
MIC [38]: 0.0313 µg/mL
MIC (Cryptococcus neoformans [24]): 0.25 µg/mL (≈ 0.701 µM)
MIC ([Candida] auris): > 64 µg/mL
MIC (Cryptococcus neoformans [39]): 0.0313 µg/mL
MIC (Cryptococcus neoformans [25]): 0.25 µg/mL (≈ 0.701 µM)
MIC [26]: 0.5 µg/mL (≈ 1.4 µM)
MIC (Cryptococcus neoformans [27]): 0.5 µg/mL (≈ 1.4 µM)
MST (Cryptococcus neoformans [28]): 2.5 days
MIC (Cryptococcus neoformans [29]): 0.5 µg/mL (≈ 1.4 µM)
MIC (Cryptococcus neoformans [30]): 0.5 µg/mL (≈ 1.4 µM)
MIC (Nakaseomyces glabratus [31]): > 64 µg/mL
MIC [32]: 1 µg/mL (≈ 2.81 µM)
MIC (Cryptococcus gattii): 0.5 µg/mL (≈ 1.4 µM)
